Experimental data as given in patent US12043632B2, “6-heteroaryloxy benzimidazoles and azabenzimidazoles as JAK2 inhibitors” (Ajax Therapeutics, Inc., priority 2020, dated 2024).

What follows are molecules tested against T1, JAK2 (JH1domain-catalytic, Y1007F,Y1008F) kinase (Homo sapiens, UniProt O60674, Y1007F/Y1008F) (assay: JAK2 JH1 Domain Binding Assay). Conditions: qPCR readout.
T1 construct: JAK2 (JH1domain-catalytic, Y1007F,Y1008F) kinase was expressed as N-terminal fusion; made in house; host or cells: transiently transfected HEK293 cells
T1 sequence (O60674 849-1124 Y1007F/Y1008F limits assumed): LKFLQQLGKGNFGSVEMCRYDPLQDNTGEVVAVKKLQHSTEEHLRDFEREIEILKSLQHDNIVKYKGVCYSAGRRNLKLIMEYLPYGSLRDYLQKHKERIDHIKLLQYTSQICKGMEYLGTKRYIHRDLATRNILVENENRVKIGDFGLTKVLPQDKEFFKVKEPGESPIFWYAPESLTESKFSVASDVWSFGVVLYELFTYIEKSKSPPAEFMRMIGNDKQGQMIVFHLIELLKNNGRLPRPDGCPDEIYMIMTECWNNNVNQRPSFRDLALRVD

| Compound | Kd |
| --- | --- |
| CNc1nccn2ncc(Oc3cnc4nc(Oc5cc(C6CC6)cn(C(C)C)c5=O)n(C)c4c3Cl)c12 [Example I-222] | 10 to 50 nM |
| COc1nccn2ncc(Oc3cnc4nc(Nc5cc(C(F)(F)F)cn(C)c5=O)n(C)c4c3Cl)c12 [Example I-224, 3-((7-chloro-6-((4-methoxypyrazolo[1,5-a]pyrazin-3-yl)oxy)-1-methyl-1H-imidazo[4,5-b]pyridin-2-yl)amino)-1-methyl-5-(trifluoromethyl)pyridin-2(1H)-one] | < 10 nM |
| Cn1cc(C(F)(F)F)cc(Nc2nc3ncc(Oc4cnn5ccnc(N[C@H]6CCOC6)c45)c(Cl)c3n2C)c1=O [Example I-225, (S)-3-((7-chloro-1-methyl-6-((4-((tetrahydrofuran-3-yl)amino)pyrazolo[1,5-a]pyrazin-3-yl)oxy)-1H-imidazo[4,5-b]pyridin-2-yl)amino)-1-methyl-5-(trifluoromethyl)pyridin-2(1H)-one] | < 10 nM |
| CNc1nccn2ncc(Oc3cnc4nc(Nc5cc(C(=O)N(C)C)c(F)c(C(F)(F)F)c5)n(C)c4c3Cl)c12 [Example I-226, 5-((7-chloro-1-methyl-6-((4-(methylamino)pyrazolo[1,5-a]pyrazin-3-yl)oxy)-1H-imidazo[4,5-b]pyridin-2-yl)amino)-2-fluoro-N,N-dimethyl-3-(trifluoromethyl)benzamide] | 10 to 50 nM |
| CCn1c(C(C)(C)C)ncc(Nc2nc3ncc(Oc4cnn5ccnc(NC)c45)c(Cl)c3n2C)c1=O [Example I-230, 2-(tert-butyl)-5-((7-chloro-1-methyl-6-((4-(methylamino)pyrazolo[1,5-a]pyrazin-3-yl)oxy)-1H-imidazo[4,5-b]pyridin-2-yl)amino)-3-ethylpyrimidin-4(3H)-one] | 50 to 1000 nM |
| Cc1nc(Nc2nc3ncc(Oc4cnn5ccncc45)c(Cl)c3n2C)nc(C)c1C1CC1 [Example I-231, 7-chloro-N-(5-cyclopropyl-4,6-dimethylpyrimidin-2-yl)-1-methyl-6-(pyrazolo[1,5-a]pyrazin-3-yloxy)-1H-imidazo[4,5-b]pyridin-2-amine] | < 10 nM |
| Cn1c(Nc2nn3c(c2F)COC(C)(C)C3)nc2ncc(Oc3cnn4ccncc34)c(Cl)c21 [Example I-232, N-(7-chloro-1-methyl-6-(pyrazolo[1,5-a]pyrazin-3-yloxy)-1H-imidazo[4,5-b]pyridin-2-yl)-3-fluoro-6,6-dimethyl-6,7-dihydro-4H-pyrazolo[5,1-c][1,4]oxazin-2-amine] | < 10 nM |

Results, then the molecule that gave them:

| Kd | Compound |
| --- | --- |
| < 10 nM | CNc1nccn2ncc(Oc3cnc4nc(Nc5cc(C(F)(F)F)c[nH]c5=O)n(C)c4c3Cl)c12 [Example I-223, 3-((7-chloro-1-methyl-6-((4-(methylamino)pyrazolo[1,5-a]pyrazin-3-yl)oxy)-1H-imidazo[4,5-b]pyridin-2-yl)amino)-5-(trifluoromethyl)pyridin-2(1H)-one] |
| 10 to 50 nM | CNc1nccn2ncc(Oc3cnc4nc(Nc5cc(OC6CCN(C)CC6)cc(C(F)(F)F)c5)n(C)c4c3Cl)c12 [Example I-227, 7-chloro-1-methyl-6-((4-(methylamino)pyrazolo[1,5-a]pyrazin-3-yl)oxy)-N-(3-((1-methylpiperidin-4-yl)oxy)-5-(trifluoromethyl)phenyl)-1H-imidazo[4,5-b]pyridin-2-amine] |
| 10 to 50 nM | CNc1nccn2ncc(Oc3cnc4nc(Nc5cc(O[C@H]6CCN(C)C6)cc(C(F)(F)F)c5)n(C)c4c3Cl)c12 [Example I-228, (S)-7-chloro-1-methyl-6-((4-(methylamino)pyrazolo[1,5-a]pyrazin-3-yl)oxy)-N-(3-((1-methylpyrrolidin-3-yl)oxy)-5-(trifluoromethyl)phenyl)-1H-imidazo[4,5-b]pyridin-2-amine] |
| 10 to 50 nM | CNc1nccn2ncc(Oc3cnc4nc(Nc5cc(O[C@@H]6CCN(C)C6)cc(C(F)(F)F)c5)n(C)c4c3Cl)c12 [Example I-229, (R)-7-chloro-1-methyl-6-((4-(methylamino)pyrazolo[1,5-a]pyrazin-3-yl)oxy)-N-(3-((1-methylpyrrolidin-3-yl)oxy)-5-(trifluoromethyl)phenyl)-1H-imidazo[4,5-b]pyridin-2-amine] |
